{
  "source": "patent US8952024B2",
  "about": "“Herbicidal pyrimidone derivatives” (E I du Pont de Nemours and Company, priority 2009, dated 2015)",
  "type_in_all_cases": "in vivo",
  "key": {"[1]": {"test_system": "canarygrass (Phalaris minor)", "assay": "Test B postemergence plant response", "summary_of_the_method": "(§1)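 Plants grown in peat/vermiculite medium were sprayed postemergence at 2–18 cm height (1- to 4-leaf stage). After 13–15 days in the greenhouse, response was rated visually against untreated controls on a 0–100 scale (0 no effect, 100 complete control).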"}, "[2]": {"test_system": "winter barley (Hordeum vulgare)", "assay": "Test B postemergence plant response", "summary_of_the_method": "as §1"}, "[3]": {"test_system": "chickweed (Stellaria media)", "assay": "Test B postemergence plant response", "summary_of_the_method": "as §1"}, "[4]": {"test_system": "windgrass (Apera spica-venti)", "assay": "Test B postemergence plant response", "summary_of_the_method": "as §1"}, "[5]": {"test_system": "velvetleaf (Abutilon theophrasti)", "assay": "Test B pre-/postemergence plant response", "summary_of_the_method": "(§2)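 Pre-em in loam/sand; post-em at 1–4 leaf (2–18 cm) in peat mix. Solvent + surfactant formulation. Greenhouse 13–15 d; visual % control vs untreated, 0–100.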"}, "[6]": {"test_system": "lambsquarters (Chenopodium album)", "assay": "Test B pre-/postemergence plant response", "summary_of_the_method": "as §2"}, "[7]": {"test_system": "blackgrass (Alopecurus myosuroides)", "assay": "Test B pre-/postemergence plant response", "summary_of_the_method": "as §2"}, "[8]": {"test_system": "johnsongrass (Sorghum halepense)", "assay": "Test B pre-/postemergence plant response", "summary_of_the_method": "as §2"}, "[9]": {"test_system": "Italian ryegrass (Lolium multiflorum)", "assay": "Test B pre-/postemergence plant response", "summary_of_the_method": "as §2"}, "[10]": {"test_system": "woolly cupgrass (Eriochloa villosa)", "assay": "Test B pre-/postemergence plant response", "summary_of_the_method": "as §2"}, "[11]": {"test_system": "ragweed (common ragweed, Ambrosia elatior)", "assay": "Test B pre-/postemergence plant response", "summary_of_the_method": "as §2"}, "[12]": {"test_system": "bermudagrass (Cynodon dactylon)", "assay": "Test B pre-/postemergence plant response", "summary_of_the_method": "as §2"}, "[13]": {"test_system": "large crabgrass (Digitaria sanguinalis)", "assay": "Test B pre-/postemergence plant response", "summary_of_the_method": "as §2"}, "[14]": {"test_system": "yellow nutsedge (Cyperus esculentus)", "assay": "Test B pre-/postemergence plant response", "summary_of_the_method": "as §2"}, "corn (Zea mays)": {"test_system": "corn (Zea mays)", "assay": "Test B pre-/postemergence plant response", "summary_of_the_method": "as §2"}, "[15]": {"test_system": "Surinam grass (Brachiaria decumbens)", "assay": "Test B pre-/postemergence plant response", "summary_of_the_method": "as §2"}, "soybean (Glycine max)": {"test_system": "soybean (Glycine max)", "assay": "Test B pre-/postemergence plant response", "summary_of_the_method": "as §2"}, "wild oat (Avena fatua)": {"test_system": "wild oat (Avena fatua)", "assay": "Test B pre-/postemergence plant response", "summary_of_the_method": "as §2"}, "[16]": {"settings": "31 g ai/ha, postemergence, scale 0 to 100, 0 is no effect, 100 is complete control"}, "[17]": {"settings": "62 g ai/ha, postemergence, 0 is no effect, 100 is complete control, 13 to 15 days"}, "[18]": {"settings": "Postemergence, 125 g ai/ha, visual rating after 13 to 15 days, scale 0 (no effect) to 100 (complete control)"}, "[19]": {"settings": "Postemergence, 250 g ai/ha, scale 0 to 100 (0 no effect, 100 complete control)"}},
  "data": [
    {"smiles": "COCCOCCn1c(-c2ccccc2)ncc(C(=O)C2=C(O)CCCC2=O)c1=O", "note": "[Compound 91]", "values": [
      {"measurement": "Plant response rating, Canarygrass", "setting": "[1]; [16]", "result": 25},
      {"measurement": "Canarygrass plant response rating (0 to 100 scale)", "setting": "[1]; [17]", "result": 55},
      {"measurement": "Plant response rating, Canarygrass", "setting": "[1]; [18]", "result": 65},
      {"measurement": "Plant response rating, Canarygrass", "setting": "[1]; [19]", "result": 75},
      {"measurement": "Plant response rating, Barley", "setting": "[2]; [16]", "result": 0},
      {"measurement": "Barley plant response rating (0 to 100 scale)", "setting": "[2]; [17]", "result": 30},
      {"measurement": "Plant response rating, Barley", "setting": "[2]; [18]", "result": 30},
      {"measurement": "Plant response rating, Barley", "setting": "[2]; [19]", "result": 40},
      {"measurement": "Plant response rating, Chickweed", "setting": "[3]; [16]", "result": 85},
      {"measurement": "Chickweed plant response rating (0 to 100 scale)", "setting": "[3]; [17]", "result": 95},
      {"measurement": "Plant response rating, Chickweed", "setting": "[3]; [18]", "result": 98},
      {"measurement": "Plant response rating, Chickweed", "setting": "[3]; [19]", "result": 100},
      {"measurement": "Plant response rating, Windgrass", "setting": "[4]; [16]", "result": 10},
      {"measurement": "Windgrass plant response rating (0 to 100 scale)", "setting": "[4]; [17]", "result": 40},
      {"measurement": "Plant response rating, Windgrass", "setting": "[4]; [19]", "result": 65},
      {"measurement": "Plant response rating, Velvetleaf", "setting": "[5]; [16]", "result": 98},
      {"measurement": "Velvetleaf plant response rating (0 to 100 scale)", "setting": "[5]; [17]", "result": 100},
      {"measurement": "Plant response rating, Velvetleaf", "setting": "[5]; [19]", "result": 100},
      {"measurement": "Plant response rating, Lambsquarters", "setting": "[6]; [16]", "result": 85},
      {"measurement": "Lambsquarters plant response rating (0 to 100 scale)", "setting": "[6]; [17]", "result": 100},
      {"measurement": "Plant response rating, Lambsquarters", "setting": "[6]; [19]", "result": 100},
      {"measurement": "Plant response rating, Blackgrass", "setting": "[7]; [16]", "result": 10},
      {"measurement": "Blackgrass plant response rating (0 to 100 scale)", "setting": "[7]; [17]", "result": 20},
      {"measurement": "Plant response rating, Blackgrass", "setting": "[7]; [18]", "result": 30},
      {"measurement": "Plant response rating, Blackgrass", "setting": "[7]; [19]", "result": 50},
      {"measurement": "Plant response rating, Johnsongrass", "setting": "[8]; [16]", "result": 65},
      {"measurement": "Johnsongrass plant response rating (0 to 100 scale)", "setting": "[8]; [17]", "result": 90},
      {"measurement": "Plant response rating, Johnsongrass", "setting": "[8]; [19]", "result": 100},
      {"measurement": "Plant response rating, Ryegrass, Italian", "setting": "[9]; [16]", "result": 0},
      {"measurement": "Ryegrass, Italian plant response rating (0 to 100 scale)", "setting": "[9]; [17]", "result": 5},
      {"measurement": "Plant response rating, Ryegrass, Italian", "setting": "[9]; [19]", "result": 20},
      {"measurement": "Plant response rating, Cupgrass, Woolly", "setting": "[10]; [16]", "result": 70},
      {"measurement": "Cupgrass, Woolly plant response rating (0 to 100 scale)", "setting": "[10]; [17]", "result": 85},
      {"measurement": "Plant response rating, Cupgrass, Woolly", "setting": "[10]; [18]", "result": 98},
      {"measurement": "Plant response rating, Cupgrass, Woolly", "setting": "[10]; [19]", "result": 98},
      {"measurement": "Plant response rating, Ragweed", "setting": "[11]; [16]", "result": 85},
      {"measurement": "Ragweed plant response rating (0 to 100 scale)", "setting": "[11]; [17]", "result": 85},
      {"measurement": "Plant response rating, Ragweed", "setting": "[11]; [19]", "result": 98},
      {"measurement": "Plant response rating, Bermudagrass", "setting": "[12]; [16]", "result": 75},
      {"measurement": "Bermudagrass plant response rating (0 to 100 scale)", "setting": "[12]; [17]", "result": 95},
      {"measurement": "Plant response rating, Bermudagrass", "setting": "[12]; [18]", "result": 95},
      {"measurement": "Plant response rating, Bermudagrass", "setting": "[12]; [19]", "result": 95},
      {"measurement": "Plant response rating, Crabgrass, Large", "setting": "[13]; [16]", "result": 80},
      {"measurement": "Crabgrass, Large plant response rating (0 to 100 scale)", "setting": "[13]; [17]", "result": 95},
      {"measurement": "Plant response rating, Crabgrass, Large", "setting": "[13]; [18]", "result": 98},
      {"measurement": "Plant response rating, Crabgrass, Large", "setting": "[13]; [19]", "result": 100},
      {"measurement": "Plant response rating, Nutsedge, Yellow", "setting": "[14]; [16]", "result": 50},
      {"measurement": "Nutsedge, Yellow plant response rating (0 to 100 scale)", "setting": "[14]; [17]", "result": 65},
      {"measurement": "Plant response rating, Nutsedge, Yellow", "setting": "[14]; [19]", "result": 75},
      {"measurement": "Plant response rating, Corn", "setting": "corn (Zea mays); [16]", "result": 25},
      {"measurement": "Corn plant response rating (0 to 100 scale)", "setting": "corn (Zea mays); [17]", "result": 35},
      {"measurement": "Plant response rating, Corn", "setting": "corn (Zea mays); [18]", "result": 45},
      {"measurement": "Plant response rating, Corn", "setting": "corn (Zea mays); [19]", "result": 60},
      {"measurement": "Plant response rating, Surinam Grass", "setting": "[15]; [16]", "result": 85},
      {"measurement": "Surinam Grass plant response rating (0 to 100 scale)", "setting": "[15]; [17]", "result": 98},
      {"measurement": "Plant response rating, Surinam Grass", "setting": "[15]; [19]", "result": 98},
      {"measurement": "Plant response rating, Soybean", "setting": "soybean (Glycine max); [16]", "result": 75},
      {"measurement": "Soybean plant response rating (0 to 100 scale)", "setting": "soybean (Glycine max); [17]", "result": 85},
      {"measurement": "Plant response rating, Soybean", "setting": "soybean (Glycine max); [19]", "result": 98},
      {"measurement": "Plant response rating, Oat, Wild", "setting": "wild oat (Avena fatua); [16]", "result": 30},
      {"measurement": "Oat, Wild plant response rating (0 to 100 scale)", "setting": "wild oat (Avena fatua); [17]", "result": 30},
      {"measurement": "Plant response rating, Oat, Wild", "setting": "wild oat (Avena fatua); [19]", "result": 50}
    ]}
  ]
}
